Experimental data reported in patent US10670605B2, “Cysteine reactive probes and uses thereof” (The Scripps Research Institute, priority 2015, dated 2020).
Counter-ions that a name gives are not always drawn.

Tests used:
Assay in all cases: isoTOP-ABPP of compound-treated primary human T cells
Format in all cases: cell-based
[1] = biological target: Cys residues in primary human T cells (Homo sapiens, UniProt Q14005); details: IL16 C1004 (Q14005)
[2] = biological target: Cys residues in primary human T cells (Homo sapiens, UniProt Q5T4S7); details: UBR4 C2554 (Q5T4S7)
[3] = biological target: Cys residues in primary human T cells (Homo sapiens, UniProt Q8TB24); details: RIN3 C942 (Q8TB24)
[4] = biological target: Cys residues in primary human T cells (Homo sapiens, UniProt Q96CW5); details: TUBGCP3 C194 (Q960W5)
[5] = biological target: T1, Cys residues in primary human T cells (Homo sapiens, UniProt O14920); details: IKBKB C464 (O14920)
T1 sequence (O14920 1-756): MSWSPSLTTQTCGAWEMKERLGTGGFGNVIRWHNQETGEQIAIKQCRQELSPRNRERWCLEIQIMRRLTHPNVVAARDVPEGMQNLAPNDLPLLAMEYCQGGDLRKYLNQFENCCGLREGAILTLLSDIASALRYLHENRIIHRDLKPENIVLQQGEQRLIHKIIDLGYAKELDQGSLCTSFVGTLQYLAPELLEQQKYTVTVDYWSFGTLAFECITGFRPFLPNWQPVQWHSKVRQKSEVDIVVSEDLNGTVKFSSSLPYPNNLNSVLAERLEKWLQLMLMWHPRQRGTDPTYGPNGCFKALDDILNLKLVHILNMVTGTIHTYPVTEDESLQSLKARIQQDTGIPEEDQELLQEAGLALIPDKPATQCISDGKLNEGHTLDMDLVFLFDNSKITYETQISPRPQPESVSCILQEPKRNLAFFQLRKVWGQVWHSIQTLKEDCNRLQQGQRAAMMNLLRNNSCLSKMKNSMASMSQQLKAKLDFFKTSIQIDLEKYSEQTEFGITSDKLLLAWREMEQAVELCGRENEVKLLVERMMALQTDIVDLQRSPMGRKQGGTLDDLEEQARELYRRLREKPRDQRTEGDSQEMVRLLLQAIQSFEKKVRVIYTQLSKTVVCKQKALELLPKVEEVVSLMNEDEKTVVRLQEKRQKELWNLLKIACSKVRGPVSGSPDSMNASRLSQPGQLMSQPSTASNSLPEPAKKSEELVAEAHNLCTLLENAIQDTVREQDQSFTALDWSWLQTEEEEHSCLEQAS

[6] = biological target: T2, Cys residues in primary human T cells (Homo sapiens, UniProt Q02556); details: IRF8 C306 (Q02556)
T2 sequence (Q02556 1-426): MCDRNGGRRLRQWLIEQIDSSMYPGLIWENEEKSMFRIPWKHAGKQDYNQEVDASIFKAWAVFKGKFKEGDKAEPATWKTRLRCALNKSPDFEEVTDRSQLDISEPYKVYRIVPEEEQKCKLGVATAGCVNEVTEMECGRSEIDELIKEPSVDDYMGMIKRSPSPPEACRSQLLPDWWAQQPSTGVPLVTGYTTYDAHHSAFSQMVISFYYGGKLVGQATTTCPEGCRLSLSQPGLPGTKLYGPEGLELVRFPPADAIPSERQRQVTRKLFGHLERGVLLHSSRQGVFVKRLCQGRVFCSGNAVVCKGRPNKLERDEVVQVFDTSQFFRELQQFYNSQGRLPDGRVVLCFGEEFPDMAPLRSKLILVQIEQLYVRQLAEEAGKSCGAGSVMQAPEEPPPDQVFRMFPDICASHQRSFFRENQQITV

[7] = biological target: Cys residues in primary human T cells (Homo sapiens, UniProt Q8N2G8); details: GHDC C502 (Q8N2G8)
[8] = biological target: T3, Cys residues in primary human T cells (Homo sapiens, UniProt P29590); details: PML C479 (P29590)
T3 sequence (P29590 1-882): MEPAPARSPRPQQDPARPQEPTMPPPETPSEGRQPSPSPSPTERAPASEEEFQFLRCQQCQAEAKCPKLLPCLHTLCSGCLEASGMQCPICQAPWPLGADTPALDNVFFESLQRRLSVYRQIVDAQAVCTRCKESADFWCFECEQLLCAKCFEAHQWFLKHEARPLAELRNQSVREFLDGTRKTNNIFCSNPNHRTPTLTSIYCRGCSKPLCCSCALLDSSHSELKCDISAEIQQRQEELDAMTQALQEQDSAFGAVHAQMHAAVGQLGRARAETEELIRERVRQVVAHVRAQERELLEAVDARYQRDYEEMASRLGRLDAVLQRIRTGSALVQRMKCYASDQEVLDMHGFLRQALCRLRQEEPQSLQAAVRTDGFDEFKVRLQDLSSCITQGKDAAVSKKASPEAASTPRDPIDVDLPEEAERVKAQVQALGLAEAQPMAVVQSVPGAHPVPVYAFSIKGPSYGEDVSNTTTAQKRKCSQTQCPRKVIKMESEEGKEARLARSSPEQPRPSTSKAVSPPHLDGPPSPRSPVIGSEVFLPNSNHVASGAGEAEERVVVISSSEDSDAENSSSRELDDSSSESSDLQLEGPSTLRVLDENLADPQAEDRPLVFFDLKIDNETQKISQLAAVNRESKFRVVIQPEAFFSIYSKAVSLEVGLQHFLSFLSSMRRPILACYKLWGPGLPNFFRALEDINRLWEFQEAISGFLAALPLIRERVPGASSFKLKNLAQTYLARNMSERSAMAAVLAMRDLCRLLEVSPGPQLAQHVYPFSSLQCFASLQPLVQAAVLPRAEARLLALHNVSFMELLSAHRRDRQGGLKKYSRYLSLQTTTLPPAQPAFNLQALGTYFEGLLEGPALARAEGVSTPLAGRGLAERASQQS

Chain of Cys residues in primary human T cells (Homo sapiens, UniProt Q14005) (Q14005 whole entry): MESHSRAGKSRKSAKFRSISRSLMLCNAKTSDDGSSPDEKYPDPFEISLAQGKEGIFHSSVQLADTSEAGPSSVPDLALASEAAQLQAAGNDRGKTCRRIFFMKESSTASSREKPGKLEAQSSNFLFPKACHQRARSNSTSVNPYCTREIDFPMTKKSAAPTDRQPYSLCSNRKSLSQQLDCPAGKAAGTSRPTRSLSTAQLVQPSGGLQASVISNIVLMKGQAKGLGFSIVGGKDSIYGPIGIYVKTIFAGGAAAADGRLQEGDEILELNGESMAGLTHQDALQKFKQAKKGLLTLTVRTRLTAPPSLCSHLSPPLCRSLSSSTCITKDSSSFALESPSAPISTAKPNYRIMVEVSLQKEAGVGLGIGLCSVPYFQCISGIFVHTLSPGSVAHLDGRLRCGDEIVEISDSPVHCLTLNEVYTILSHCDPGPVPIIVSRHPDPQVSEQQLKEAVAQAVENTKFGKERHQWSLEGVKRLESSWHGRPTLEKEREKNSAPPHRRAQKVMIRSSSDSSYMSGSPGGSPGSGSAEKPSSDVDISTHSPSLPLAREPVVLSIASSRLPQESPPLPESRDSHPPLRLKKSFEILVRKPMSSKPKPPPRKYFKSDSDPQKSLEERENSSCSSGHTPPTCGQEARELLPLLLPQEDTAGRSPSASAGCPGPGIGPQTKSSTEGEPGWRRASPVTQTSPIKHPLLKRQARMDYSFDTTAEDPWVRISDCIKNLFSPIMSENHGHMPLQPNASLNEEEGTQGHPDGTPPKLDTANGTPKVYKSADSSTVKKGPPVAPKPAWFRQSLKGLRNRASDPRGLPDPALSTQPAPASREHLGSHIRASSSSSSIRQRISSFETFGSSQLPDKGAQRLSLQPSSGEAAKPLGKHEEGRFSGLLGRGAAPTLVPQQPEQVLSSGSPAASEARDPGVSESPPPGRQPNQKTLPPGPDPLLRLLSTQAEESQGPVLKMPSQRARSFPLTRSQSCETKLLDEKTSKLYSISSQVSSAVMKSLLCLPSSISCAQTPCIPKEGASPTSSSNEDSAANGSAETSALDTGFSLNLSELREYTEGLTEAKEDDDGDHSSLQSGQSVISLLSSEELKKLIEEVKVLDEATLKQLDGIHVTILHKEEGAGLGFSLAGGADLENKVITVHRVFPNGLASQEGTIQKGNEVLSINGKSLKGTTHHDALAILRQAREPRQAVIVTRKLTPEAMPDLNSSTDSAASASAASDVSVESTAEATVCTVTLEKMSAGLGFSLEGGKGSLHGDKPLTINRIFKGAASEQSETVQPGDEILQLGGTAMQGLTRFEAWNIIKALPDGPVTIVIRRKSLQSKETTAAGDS
Chain of Cys residues in primary human T cells (Homo sapiens, UniProt Q96CW5) (Q96CW5 whole entry): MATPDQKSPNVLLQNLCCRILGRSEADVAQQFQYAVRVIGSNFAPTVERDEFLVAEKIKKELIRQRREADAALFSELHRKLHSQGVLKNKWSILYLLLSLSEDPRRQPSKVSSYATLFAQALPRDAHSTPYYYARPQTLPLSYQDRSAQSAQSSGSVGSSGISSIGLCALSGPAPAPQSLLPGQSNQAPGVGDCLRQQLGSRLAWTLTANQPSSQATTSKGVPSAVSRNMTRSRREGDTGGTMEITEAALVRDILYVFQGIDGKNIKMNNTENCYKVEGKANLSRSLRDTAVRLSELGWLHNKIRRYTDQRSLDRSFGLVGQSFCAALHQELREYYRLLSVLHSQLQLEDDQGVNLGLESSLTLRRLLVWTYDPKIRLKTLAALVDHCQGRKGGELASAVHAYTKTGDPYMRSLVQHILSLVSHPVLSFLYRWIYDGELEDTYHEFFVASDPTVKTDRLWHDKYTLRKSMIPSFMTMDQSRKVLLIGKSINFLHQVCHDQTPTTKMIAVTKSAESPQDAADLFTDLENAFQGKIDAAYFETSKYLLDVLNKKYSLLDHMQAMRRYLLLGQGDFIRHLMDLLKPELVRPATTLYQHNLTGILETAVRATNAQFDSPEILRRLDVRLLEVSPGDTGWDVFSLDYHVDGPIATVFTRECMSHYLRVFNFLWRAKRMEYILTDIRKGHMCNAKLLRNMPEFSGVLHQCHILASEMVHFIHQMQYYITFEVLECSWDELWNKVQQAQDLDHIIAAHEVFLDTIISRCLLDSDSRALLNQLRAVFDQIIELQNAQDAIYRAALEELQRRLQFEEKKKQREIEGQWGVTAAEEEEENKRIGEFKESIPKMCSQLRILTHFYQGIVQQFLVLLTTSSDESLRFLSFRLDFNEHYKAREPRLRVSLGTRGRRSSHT
Chain of Cys residues in primary human T cells (Homo sapiens, UniProt Q8TB24) (Q8TB24 whole entry): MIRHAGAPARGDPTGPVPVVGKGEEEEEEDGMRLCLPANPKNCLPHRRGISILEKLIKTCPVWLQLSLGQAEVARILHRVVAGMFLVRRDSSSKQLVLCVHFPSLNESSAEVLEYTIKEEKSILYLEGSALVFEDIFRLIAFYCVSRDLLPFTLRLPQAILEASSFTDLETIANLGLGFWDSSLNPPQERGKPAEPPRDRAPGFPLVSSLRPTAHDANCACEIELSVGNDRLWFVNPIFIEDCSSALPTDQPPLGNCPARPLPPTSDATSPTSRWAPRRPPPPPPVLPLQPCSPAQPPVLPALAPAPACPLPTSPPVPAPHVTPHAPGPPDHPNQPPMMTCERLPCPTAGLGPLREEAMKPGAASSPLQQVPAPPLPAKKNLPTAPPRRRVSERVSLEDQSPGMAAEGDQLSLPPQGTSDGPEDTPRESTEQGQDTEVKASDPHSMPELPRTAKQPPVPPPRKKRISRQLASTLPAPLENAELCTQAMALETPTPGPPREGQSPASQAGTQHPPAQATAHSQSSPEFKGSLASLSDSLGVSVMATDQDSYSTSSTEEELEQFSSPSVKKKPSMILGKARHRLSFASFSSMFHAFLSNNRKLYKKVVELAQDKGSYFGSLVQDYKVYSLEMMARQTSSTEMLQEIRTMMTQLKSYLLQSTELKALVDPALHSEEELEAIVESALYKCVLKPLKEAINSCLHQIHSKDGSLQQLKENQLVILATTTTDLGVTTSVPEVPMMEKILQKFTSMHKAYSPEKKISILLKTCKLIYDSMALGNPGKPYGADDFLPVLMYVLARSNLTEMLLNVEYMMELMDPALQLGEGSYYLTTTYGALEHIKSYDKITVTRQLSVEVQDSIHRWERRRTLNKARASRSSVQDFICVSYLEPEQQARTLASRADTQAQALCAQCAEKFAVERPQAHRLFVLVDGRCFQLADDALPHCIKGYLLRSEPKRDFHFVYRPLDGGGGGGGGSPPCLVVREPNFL
Chain of Cys residues in primary human T cells (Homo sapiens, UniProt Q8N2G8) (Q8N2G8 18-530): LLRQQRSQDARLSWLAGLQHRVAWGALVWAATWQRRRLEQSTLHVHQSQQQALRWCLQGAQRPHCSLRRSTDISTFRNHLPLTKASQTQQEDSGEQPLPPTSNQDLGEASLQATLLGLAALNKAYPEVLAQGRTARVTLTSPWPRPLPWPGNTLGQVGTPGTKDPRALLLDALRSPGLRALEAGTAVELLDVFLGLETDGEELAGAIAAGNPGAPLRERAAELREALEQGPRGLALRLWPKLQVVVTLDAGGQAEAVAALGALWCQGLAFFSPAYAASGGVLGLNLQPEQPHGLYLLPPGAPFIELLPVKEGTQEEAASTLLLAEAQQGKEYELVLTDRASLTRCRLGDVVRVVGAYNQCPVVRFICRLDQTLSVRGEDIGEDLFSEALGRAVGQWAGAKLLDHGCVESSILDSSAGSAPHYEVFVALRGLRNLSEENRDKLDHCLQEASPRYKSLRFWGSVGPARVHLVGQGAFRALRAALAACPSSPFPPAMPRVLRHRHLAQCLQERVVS

COC(=O)/C=C/C(=O)OC [DMF, dimethyl fumarate]
R value (DMSO/DMF) ([1]; DMF 10 μM 4h): 1.37
R value (DMSO/DMF) ([1]; DMF 50 μM 1h): 1.95
R value (DMSO/DMF) ([1]; DMF 50 μM 2h): 3.32
R value (DMSO/DMF) ([1]; DMF 50 μM 4h): 4.13
R value (DMSO/DMF) ([2]; DMF 10 μM 4h): 1.52
R value (DMSO/DMF) ([2]; DMF 50 μM 1h): 1.6
R value (DMSO/DMF) ([2]; DMF 50 μM 2h): 2.1
R value (DMSO/DMF) ([2]; DMF 50 μM 4h): 4.63
R value (DMSO/DMF) ([3]; DMF 50 μM 2h): 3
R value (DMSO/DMF) ([3]; DMF 50 μM 4h): 5.7
R value (DMSO/DMF) ([4]; DMF 50 μM 2h): 2.44
R value (DMSO/DMF) ([4]; DMF 50 μM 4h): 4.94
R value (DMSO/DMF) ([5]; DMF 10 μM 4h): 2.59
R value (DMSO/DMF) ([5]; DMF 50 μM 1h): 3.96
R value (DMSO/DMF) ([5]; DMF 50 μM 2h): 10.12
R value (DMSO/DMF) ([5]; DMF 50 μM 4h): 20
R value (DMSO/DMF) ([6]; DMF 10 μM 4h): 1.9
R value (DMSO/DMF) ([6]; DMF 50 μM 1h): 1.66
R value (DMSO/DMF) ([6]; DMF 50 μM 4h): 5.32
R value (DMSO/DMF) ([7]; DMF 50 μM 1h): 4.23
R value (DMSO/DMF) ([7]; DMF 50 μM 2h): 20
R value (DMSO/DMF) ([8]; DMF 10 μM 4h): 2.1
R value (DMSO/DMF) ([8]; DMF 25 μM 4h): 2.17
R value (DMSO/DMF) ([8]; DMF 50 μM 2h): 4.57
